Reference: paper PMC9492542, “Brain-restricted mTOR inhibition with binary pharmacology” (Nature, 2022)
Read-outs that look alike come from different tables or passages of the source.

Columns and labels:
476 purified kinases [1] = molecular target: 476 purified kinases (Homo sapiens, UniProt O43318); conditions: 10 nM compound + 10 µM FKBP12
476 purified kinases [2] = molecular target: 476 purified kinases (Homo sapiens, UniProt O94921)
476 purified kinases [3] = molecular target: 476 purified kinases (Homo sapiens, UniProt P22612)
476 purified kinases [4] = molecular target: 476 purified kinases (Homo sapiens, UniProt P22694)
476 purified kinases [5] = molecular target: 476 purified kinases (Homo sapiens, UniProt P24941); conditions: for CDK2/cyclin A (kinase profiling): ZLYTE
476 purified kinases [6] = molecular target: 476 purified kinases (Homo sapiens, UniProt P25098); conditions: ZLYTE
476 purified kinases [7] = molecular target: 476 purified kinases (Homo sapiens, UniProt P49336)
Chain of 476 purified kinases (Homo sapiens, UniProt P49336) (P49336 whole entry): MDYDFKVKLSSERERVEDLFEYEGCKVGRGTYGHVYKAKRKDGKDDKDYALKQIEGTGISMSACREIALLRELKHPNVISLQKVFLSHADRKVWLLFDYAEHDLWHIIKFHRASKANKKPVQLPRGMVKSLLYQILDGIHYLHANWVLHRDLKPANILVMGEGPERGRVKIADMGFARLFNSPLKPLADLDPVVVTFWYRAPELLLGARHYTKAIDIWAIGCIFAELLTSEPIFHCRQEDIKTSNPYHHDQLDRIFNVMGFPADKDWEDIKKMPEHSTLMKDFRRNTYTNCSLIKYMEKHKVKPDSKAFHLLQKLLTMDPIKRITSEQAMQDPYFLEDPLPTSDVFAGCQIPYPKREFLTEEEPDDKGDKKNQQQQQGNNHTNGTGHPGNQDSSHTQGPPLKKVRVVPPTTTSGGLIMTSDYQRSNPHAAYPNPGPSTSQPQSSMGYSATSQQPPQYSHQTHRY

476 purified kinases [8] = molecular target: 476 purified kinases (Homo sapiens, UniProt P51957); conditions: ZLYTE
476 purified kinases [9] = molecular target: 476 purified kinases (Homo sapiens, UniProt Q00534); conditions: Adapta
Chain of 476 purified kinases (Homo sapiens, UniProt Q00534) (Q00534 whole entry): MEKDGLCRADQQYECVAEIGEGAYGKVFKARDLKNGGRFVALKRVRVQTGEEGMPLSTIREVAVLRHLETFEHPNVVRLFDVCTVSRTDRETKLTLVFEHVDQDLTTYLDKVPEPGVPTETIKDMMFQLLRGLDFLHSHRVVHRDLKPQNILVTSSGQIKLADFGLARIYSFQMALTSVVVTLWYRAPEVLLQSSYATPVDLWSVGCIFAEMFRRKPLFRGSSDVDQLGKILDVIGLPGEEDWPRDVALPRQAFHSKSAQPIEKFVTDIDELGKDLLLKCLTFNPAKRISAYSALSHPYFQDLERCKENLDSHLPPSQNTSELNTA

476 purified kinases [10] = molecular target: 476 purified kinases (Homo sapiens, UniProt Q07002); conditions: ZLYTE
476 purified kinases [11] = molecular target: 476 purified kinases (Homo sapiens, UniProt Q13177); conditions: ZLYTE
476 purified kinases [12] = molecular target: 476 purified kinases (Homo sapiens, UniProt Q13554); conditions: ZLYTE
476 purified kinases [13] = molecular target: 476 purified kinases (Homo sapiens, UniProt Q13873)
476 purified kinases [14] = molecular target: 476 purified kinases (Homo sapiens, UniProt Q14012); conditions: Adapta
476 purified kinases [15] = molecular target: 476 purified kinases (Homo sapiens, UniProt Q15759); conditions: ZLYTE
Chain of 476 purified kinases (Homo sapiens, UniProt Q15759) (Q15759 whole entry): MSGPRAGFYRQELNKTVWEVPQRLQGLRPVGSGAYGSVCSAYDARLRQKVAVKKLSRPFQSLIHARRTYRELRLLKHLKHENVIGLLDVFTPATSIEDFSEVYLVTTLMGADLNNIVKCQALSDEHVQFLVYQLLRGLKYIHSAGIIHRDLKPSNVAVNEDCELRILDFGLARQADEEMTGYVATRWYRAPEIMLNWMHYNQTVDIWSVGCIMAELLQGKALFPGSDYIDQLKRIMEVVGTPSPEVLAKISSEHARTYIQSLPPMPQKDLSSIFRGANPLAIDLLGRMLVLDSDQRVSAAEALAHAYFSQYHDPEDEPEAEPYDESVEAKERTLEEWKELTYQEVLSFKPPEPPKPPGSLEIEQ

476 purified kinases [16] = molecular target: 476 purified kinases (Homo sapiens, UniProt Q7L7X3)
476 purified kinases [17] = molecular target: 476 purified kinases (Homo sapiens, UniProt Q8IVH8)
476 purified kinases [18] = molecular target: 476 purified kinases (Homo sapiens, UniProt Q8IY84); conditions: ZLYTE
Chain of 476 purified kinases (Homo sapiens, UniProt Q8IY84) (Q8IY84 whole entry): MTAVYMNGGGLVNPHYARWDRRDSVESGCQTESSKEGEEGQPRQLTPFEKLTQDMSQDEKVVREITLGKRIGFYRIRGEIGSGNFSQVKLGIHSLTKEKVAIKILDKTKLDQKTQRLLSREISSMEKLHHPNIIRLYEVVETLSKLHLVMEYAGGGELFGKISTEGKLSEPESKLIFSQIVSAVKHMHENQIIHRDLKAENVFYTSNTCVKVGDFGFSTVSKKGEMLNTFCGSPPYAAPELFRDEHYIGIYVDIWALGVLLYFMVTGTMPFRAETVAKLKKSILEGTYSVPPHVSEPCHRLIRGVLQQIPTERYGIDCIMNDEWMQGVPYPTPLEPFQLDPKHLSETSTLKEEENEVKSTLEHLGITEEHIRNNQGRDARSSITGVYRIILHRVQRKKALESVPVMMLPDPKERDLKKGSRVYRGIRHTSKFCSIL

476 purified kinases [19] = molecular target: 476 purified kinases (Homo sapiens, UniProt Q8IYT8)
476 purified kinases [20] = molecular target: 476 purified kinases (Homo sapiens, UniProt Q8N568); conditions: ZLYTE
476 purified kinases [21] = molecular target: 476 purified kinases (Homo sapiens, UniProt Q8NEB9)
Chain of 476 purified kinases (Homo sapiens, UniProt Q8NEB9) (Q8NEB9 whole entry): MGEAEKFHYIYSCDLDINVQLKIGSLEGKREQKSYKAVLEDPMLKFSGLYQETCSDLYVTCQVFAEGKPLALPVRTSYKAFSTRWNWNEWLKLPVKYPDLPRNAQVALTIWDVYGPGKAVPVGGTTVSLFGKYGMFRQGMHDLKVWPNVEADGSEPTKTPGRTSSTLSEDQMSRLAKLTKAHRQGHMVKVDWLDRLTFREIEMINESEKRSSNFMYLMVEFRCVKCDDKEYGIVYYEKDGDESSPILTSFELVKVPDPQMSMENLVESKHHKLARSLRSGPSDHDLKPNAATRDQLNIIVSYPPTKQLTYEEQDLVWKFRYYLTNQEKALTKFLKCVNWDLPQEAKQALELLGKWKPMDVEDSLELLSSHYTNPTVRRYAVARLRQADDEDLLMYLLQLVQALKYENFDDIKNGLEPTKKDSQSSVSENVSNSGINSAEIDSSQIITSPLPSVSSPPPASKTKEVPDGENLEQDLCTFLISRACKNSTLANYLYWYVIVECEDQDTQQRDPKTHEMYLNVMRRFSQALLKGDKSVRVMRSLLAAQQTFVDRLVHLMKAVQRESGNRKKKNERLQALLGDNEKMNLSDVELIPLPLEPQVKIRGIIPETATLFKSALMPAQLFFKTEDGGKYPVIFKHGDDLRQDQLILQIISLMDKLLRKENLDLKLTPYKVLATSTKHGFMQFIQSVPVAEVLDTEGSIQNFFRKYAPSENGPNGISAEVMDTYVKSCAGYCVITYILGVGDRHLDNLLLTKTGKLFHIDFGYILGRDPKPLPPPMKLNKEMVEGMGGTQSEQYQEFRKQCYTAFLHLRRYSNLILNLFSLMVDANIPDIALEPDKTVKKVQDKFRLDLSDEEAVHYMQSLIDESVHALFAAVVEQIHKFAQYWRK

476 purified kinases [22] = molecular target: 476 purified kinases (Homo sapiens, UniProt Q8NI60)
476 purified kinases [23] = molecular target: 476 purified kinases (Homo sapiens, UniProt Q8TF76); conditions: Adapta
476 purified kinases [24] = molecular target: 476 purified kinases (Homo sapiens, UniProt Q9UPE1); conditions: ZLYTE
Chain of 476 purified kinases (Homo sapiens, UniProt Q9UPE1) (Q9UPE1 whole entry): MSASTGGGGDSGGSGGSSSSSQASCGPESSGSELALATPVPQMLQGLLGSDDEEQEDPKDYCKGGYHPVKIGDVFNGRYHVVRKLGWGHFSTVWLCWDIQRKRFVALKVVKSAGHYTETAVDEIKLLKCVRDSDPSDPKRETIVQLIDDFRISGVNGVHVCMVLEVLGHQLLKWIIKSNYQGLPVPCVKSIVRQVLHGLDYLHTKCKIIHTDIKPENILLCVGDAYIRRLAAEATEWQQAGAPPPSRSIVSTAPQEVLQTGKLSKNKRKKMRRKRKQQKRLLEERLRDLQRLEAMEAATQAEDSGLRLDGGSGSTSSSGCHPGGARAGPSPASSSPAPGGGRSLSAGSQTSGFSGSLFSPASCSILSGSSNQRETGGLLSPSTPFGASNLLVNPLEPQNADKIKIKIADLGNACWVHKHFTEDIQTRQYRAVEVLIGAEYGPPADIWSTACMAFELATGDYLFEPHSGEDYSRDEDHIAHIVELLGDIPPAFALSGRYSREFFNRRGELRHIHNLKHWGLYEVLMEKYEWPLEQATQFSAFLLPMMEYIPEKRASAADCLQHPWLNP

476 purified kinases [25] = molecular target: 476 purified kinases (Homo sapiens, UniProt Q9UQM7); conditions: ZLYTE
476 purified kinases [26] = molecular target: 476 purified kinases (Homo sapiens, UniProt Q9Y2H1)
mTOR = molecular target: T1, mTOR (Homo sapiens, UniProt P42345); assay: In vitro mTOR kinase inhibition assay (SelectScreen Z'-LYTE), with or without 10 µM FKBP12; format: biochemical; conditions: for residual kinase activity (mTOR): listed as RL-1
T1 construct: We performed in vitro kinase assays with purified mTOR protein; purchased SelectScreen Services (Thermo Fisher Scientific)
T1 sequence (P42345 1360-2549 limits assumed): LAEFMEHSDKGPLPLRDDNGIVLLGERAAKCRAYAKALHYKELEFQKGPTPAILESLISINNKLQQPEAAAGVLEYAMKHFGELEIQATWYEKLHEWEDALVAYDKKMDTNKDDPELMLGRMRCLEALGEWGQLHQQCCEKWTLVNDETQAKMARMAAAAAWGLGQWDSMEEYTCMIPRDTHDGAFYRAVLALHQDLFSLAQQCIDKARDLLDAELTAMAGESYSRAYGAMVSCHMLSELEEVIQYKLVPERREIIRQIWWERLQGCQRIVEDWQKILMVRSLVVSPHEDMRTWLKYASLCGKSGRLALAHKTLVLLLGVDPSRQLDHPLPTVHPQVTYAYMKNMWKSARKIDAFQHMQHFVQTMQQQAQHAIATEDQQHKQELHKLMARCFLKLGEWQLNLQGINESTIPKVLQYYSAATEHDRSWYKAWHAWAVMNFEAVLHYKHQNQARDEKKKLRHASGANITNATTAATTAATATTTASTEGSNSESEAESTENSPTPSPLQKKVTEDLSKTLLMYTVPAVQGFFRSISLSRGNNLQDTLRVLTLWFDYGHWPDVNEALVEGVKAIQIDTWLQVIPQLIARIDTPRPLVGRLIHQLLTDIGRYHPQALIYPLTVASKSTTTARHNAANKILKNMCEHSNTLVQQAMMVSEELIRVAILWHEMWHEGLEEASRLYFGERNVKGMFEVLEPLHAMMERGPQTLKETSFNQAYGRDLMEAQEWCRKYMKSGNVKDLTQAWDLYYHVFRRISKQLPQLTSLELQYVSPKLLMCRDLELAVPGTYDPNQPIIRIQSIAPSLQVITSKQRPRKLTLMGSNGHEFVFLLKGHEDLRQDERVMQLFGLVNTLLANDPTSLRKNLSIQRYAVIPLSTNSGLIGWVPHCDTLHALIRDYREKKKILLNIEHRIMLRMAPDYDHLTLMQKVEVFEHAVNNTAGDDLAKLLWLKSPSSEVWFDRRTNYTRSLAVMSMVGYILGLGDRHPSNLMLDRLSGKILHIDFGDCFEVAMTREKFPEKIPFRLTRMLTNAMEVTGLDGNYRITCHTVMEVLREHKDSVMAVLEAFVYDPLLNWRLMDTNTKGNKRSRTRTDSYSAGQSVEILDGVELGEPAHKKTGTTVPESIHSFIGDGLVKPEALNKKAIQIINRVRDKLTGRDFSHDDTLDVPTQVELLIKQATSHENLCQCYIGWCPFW
Procedure: In vitro kinase inhibition assays were performed by SelectScreen Services (Thermo Fisher Scientific) using either Z’-LYTE (mTOR, Src, Csk, EGFR, HER2 and HGK), Adapta (LRRK2) or LanthaScreen (DDR2) assay format (standardized protocols can be accessed on the SelectScreen website: https://www.thermofisher.com/us/en/home/products-and-services/services/custom-services/screening-and-profiling-services/selectscreen-profiling-service/selectscreen-kinase-profiling-service.html. When indicated, recombinant FKBP12 protein was added to the assay mixture to a final concentration of 10 µM.

Chain of 476 purified kinases (Homo sapiens, UniProt O94921) (O94921 whole entry): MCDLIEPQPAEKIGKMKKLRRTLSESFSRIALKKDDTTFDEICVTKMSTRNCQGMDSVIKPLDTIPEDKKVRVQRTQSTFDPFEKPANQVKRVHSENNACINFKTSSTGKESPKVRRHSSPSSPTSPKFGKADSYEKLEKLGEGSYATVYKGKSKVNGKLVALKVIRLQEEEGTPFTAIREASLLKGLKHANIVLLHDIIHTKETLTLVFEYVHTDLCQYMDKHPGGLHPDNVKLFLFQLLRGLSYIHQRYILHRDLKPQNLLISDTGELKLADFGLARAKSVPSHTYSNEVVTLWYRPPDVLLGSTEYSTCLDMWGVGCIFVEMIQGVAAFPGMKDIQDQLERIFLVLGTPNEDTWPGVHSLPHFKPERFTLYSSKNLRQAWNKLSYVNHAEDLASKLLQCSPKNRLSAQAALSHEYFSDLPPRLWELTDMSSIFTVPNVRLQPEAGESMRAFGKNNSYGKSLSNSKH

Cc1nc(Nc2ncc(C(=O)Nc3c(C)cccc3Cl)s2)cc(N2CCN(CCO)CC2)n1 [Dasatinib]
MAP3K7/MAP3K7IP1 (TAK1-TAB1) (LanthaScreen Binding) (476 purified kinases [1]): -7
CDK14 (PFTK1)/cyclin Y (LanthaScreen Binding) (476 purified kinases [2]; 10 nM compound): -3
CDK14 (PFTK1)/cyclin Y (LanthaScreen Binding) (476 purified kinases [2]; 10 nM compound + 10 µM FKBP12): 2
PRKACG (PRKAC gamma) (LanthaScreen Binding) (476 purified kinases [3]; 10 nM compound): 0
PRKACG (PRKAC gamma) (LanthaScreen Binding) (476 purified kinases [3]; 10 nM compound + 10 µM FKBP12): 6
PRKACB (PRKAC beta) (LanthaScreen Binding) (476 purified kinases [4]; 10 nM compound): -9
PRKACB (PRKAC beta) (LanthaScreen Binding) (476 purified kinases [4]; 10 nM compound + 10 µM FKBP12): -3
CDK2/cyclin A1 (LanthaScreen Binding) (476 purified kinases [5]; 10 nM compound): 1
CDK2/cyclin E1 (LanthaScreen Binding) (476 purified kinases [5]; 10 nM compound): 0
CDK2/cyclin O (LanthaScreen Binding) (476 purified kinases [5]; 10 nM compound): 5
CDK2/cyclin A1 (LanthaScreen Binding) (476 purified kinases [5]; 10 nM compound + 10 µM FKBP12): 1
CDK2/cyclin E1 (LanthaScreen Binding) (476 purified kinases [5]; 10 nM compound + 10 µM FKBP12): -7
CDK2/cyclin O (LanthaScreen Binding) (476 purified kinases [5]; 10 nM compound + 10 µM FKBP12): 12
CDK2/cyclin A (kinase profiling) (476 purified kinases [5]; 10 nM): 3
CDK2/cyclin A (kinase profiling) (476 purified kinases [5]; 10 nM + 10 µM FKBP12): 6
ADRBK1 (GRK2) (kinase profiling) (476 purified kinases [6]; 10 nM): 2
ADRBK1 (GRK2) (kinase profiling) (476 purified kinases [6]; 10 nM + 10 µM FKBP12): 3
CDK8/cyclin C (LanthaScreen Binding) (476 purified kinases [7]; 10 nM compound): 2
CDK8/cyclin C (LanthaScreen Binding) (476 purified kinases [7]; 10 nM compound + 10 µM FKBP12): 5
NEK4 (kinase profiling) (476 purified kinases [8]; 10 nM): 4
NEK4 (kinase profiling) (476 purified kinases [8]; 10 nM + 10 µM FKBP12): 7
CDK6/cyclin D1 (kinase profiling) (476 purified kinases [9]; 10 nM): 11
CDK6/cyclin D1 (kinase profiling) (476 purified kinases [9]; 10 nM + 10 µM FKBP12): -10
CDK18/cyclin Y (kinase profiling) (476 purified kinases [10]; 10 nM): 6
CDK18/cyclin Y (kinase profiling) (476 purified kinases [10]; 10 nM + 10 µM FKBP12): 9
PAK2 (PAK65) (kinase profiling) (476 purified kinases [11]; 10 nM): 11
PAK2 (PAK65) (kinase profiling) (476 purified kinases [11]; 10 nM + 10 µM FKBP12): 11
CAMK2B (CaMKII beta) (kinase profiling) (476 purified kinases [12]; 10 nM): 7
CAMK2B (CaMKII beta) (kinase profiling) (476 purified kinases [12]; 10 nM + 10 µM FKBP12): 7
BMPR2 (LanthaScreen Binding) (476 purified kinases [13]; 10 nM compound): 0
BMPR2 (LanthaScreen Binding) (476 purified kinases [13]; 10 nM compound + 10 µM FKBP12): 3
CAMK1 (CaMK1) (kinase profiling) (476 purified kinases [14]; 10 nM): -14
CAMK1 (CaMK1) (kinase profiling) (476 purified kinases [14]; 10 nM + 10 µM FKBP12): 28
MAPK11 (p38 beta) (kinase profiling) (476 purified kinases [15]; 10 nM): 8
MAPK11 (p38 beta) (kinase profiling) (476 purified kinases [15]; 10 nM + 10 µM FKBP12): 9
TAOK1 (LanthaScreen Binding) (476 purified kinases [16]; 10 nM compound): -5
TAOK1 (LanthaScreen Binding) (476 purified kinases [16]; 10 nM compound + 10 µM FKBP12): 1
MAP4K3 (GLK) (LanthaScreen Binding) (476 purified kinases [17]; 10 nM compound): 1
MAP4K3 (GLK) (LanthaScreen Binding) (476 purified kinases [17]; 10 nM compound + 10 µM FKBP12): 6
NIM1K (kinase profiling) (476 purified kinases [18]; 10 nM): 7
NIM1K (kinase profiling) (476 purified kinases [18]; 10 nM + 10 µM FKBP12): 17
ULK2 (LanthaScreen Binding) (476 purified kinases [19]; 10 nM compound): -3
ULK2 (LanthaScreen Binding) (476 purified kinases [19]; 10 nM compound + 10 µM FKBP12): -6
DCAMKL2 (DCK2) (kinase profiling) (476 purified kinases [20]; 10 nM): 7
DCAMKL2 (DCK2) (kinase profiling) (476 purified kinases [20]; 10 nM + 10 µM FKBP12): 12
PIK3C3 (hVPS34) (Adapta) (476 purified kinases [21]; 10 nM compound): 2
PIK3C3 (hVPS34) (Adapta) (476 purified kinases [21]; 10 nM compound + 10 µM FKBP12): -1
ADCK3 (LanthaScreen Binding) (476 purified kinases [22]; 10 nM compound): -1
ADCK3 (LanthaScreen Binding) (476 purified kinases [22]; 10 nM compound + 10 µM FKBP12): 16
GSG2 (Haspin) (kinase profiling) (476 purified kinases [23]; 10 nM): -6
GSG2 (Haspin) (kinase profiling) (476 purified kinases [23]; 10 nM + 10 µM FKBP12): 0
STK23 (MSSK1) (kinase profiling) (476 purified kinases [24]; 10 nM): 5
STK23 (MSSK1) (kinase profiling) (476 purified kinases [24]; 10 nM + 10 µM FKBP12): 7
CAMK2A (CaMKII alpha) (kinase profiling) (476 purified kinases [25]; 10 nM): 5
CAMK2A (CaMKII alpha) (kinase profiling) (476 purified kinases [25]; 10 nM + 10 µM FKBP12): 7
STK38L (NDR2) (LanthaScreen Binding) (476 purified kinases [26]; 10 nM compound): -2
STK38L (NDR2) (LanthaScreen Binding) (476 purified kinases [26]; 10 nM compound + 10 µM FKBP12): -3

CO[C@H]1C[C@@H]2CC[C@@H](C)[C@@](O)(O2)C(=O)C(=O)N2CCCC[C@H]2C(=O)O[C@H]([C@H](C)C[C@@H]2CC[C@@H](OCCOCc3cn(CCOCCOCCOCCOCCOCCOCCOCCOCCC(=O)NCCCCn4nc(-c5ccc6oc(N)nc6c5)c5c(N)ncnc54)nn3)[C@H](OC)C2)CC(=O)[C@H](C)/C=C(\C)[C@@H](O)[C@@H](OC)C(=O)[C@H](C)C[C@H](C)/C=C/C=C/C=C/1C [RapaLink-1]
residual kinase activity (mTOR) (mTOR; 0.00495 nM drug, +FKBP): 99
remaining activity at 4.95 pM (mTOR; 0.00495 nM drug, +FKBP, read-out: residual kinase activity (mTOR)): 95%
residual kinase activity (mTOR) (mTOR; 0.00495 nM drug, no FKBP): 100
remaining activity at 4.95 pM (mTOR; 0.00495 nM drug, no FKBP, read-out: residual kinase activity (mTOR)): 96%
residual kinase activity (mTOR) (mTOR; 0.0152 nM drug, +FKBP): 103
remaining activity at 15.2 pM (mTOR; 0.0152 nM drug, +FKBP, read-out: residual kinase activity (mTOR)): 98%
residual kinase activity (mTOR) (mTOR; 0.0152 nM drug, no FKBP): 101
remaining activity at 15.2 pM (mTOR; 0.0152 nM drug, no FKBP, read-out: residual kinase activity (mTOR)): 100%
residual kinase activity (mTOR) (mTOR; 0.0457 nM drug, +FKBP): 103
remaining activity at 45.7 pM (mTOR; 0.0457 nM drug, +FKBP, read-out: residual kinase activity (mTOR)): 102%
residual kinase activity (mTOR) (mTOR; 0.0457 nM drug, no FKBP): 99
remaining activity at 45.7 pM (mTOR; 0.0457 nM drug, no FKBP, read-out: residual kinase activity (mTOR)): 101%
residual kinase activity (mTOR) (mTOR; 0.137 nM drug, +FKBP): 99
remaining activity at 0.000137 µM (mTOR; 0.137 nM drug, +FKBP, read-out: residual kinase activity (mTOR)): 101%
residual kinase activity (mTOR) (mTOR; 0.137 nM drug, no FKBP): 96
remaining activity at 0.000137 µM (mTOR; 0.137 nM drug, no FKBP, read-out: residual kinase activity (mTOR)): 97%
remaining activity at 0.000412 µM (mTOR; 0.412 nM drug, +FKBP, read-out: residual kinase activity (mTOR)): 97%
residual kinase activity (mTOR) (mTOR; 0.412 nM drug, no FKBP): 92
remaining activity at 0.000412 µM (mTOR; 0.412 nM drug, no FKBP, read-out: residual kinase activity (mTOR)): 95%
residual kinase activity (mTOR) (mTOR; 1.23 nM drug, +FKBP): 86
remaining activity at 0.00123 µM (mTOR; 1.23 nM drug, +FKBP, read-out: residual kinase activity (mTOR)): 89%
residual kinase activity (mTOR) (mTOR; 1.23 nM drug, no FKBP): 83
remaining activity at 0.00123 µM (mTOR; 1.23 nM drug, no FKBP, read-out: residual kinase activity (mTOR)): 87%
residual kinase activity (mTOR) (mTOR; 11.1 nM drug, +FKBP): 17
remaining activity at 0.0111 µM (mTOR; 11.1 nM drug, +FKBP, read-out: residual kinase activity (mTOR)): 14%
remaining activity at 0.0111 µM (mTOR; 11.1 nM drug, no FKBP, read-out: residual kinase activity (mTOR)): 15%
residual kinase activity (mTOR) (mTOR; 33.3 nM drug, +FKBP): 4
remaining activity at 0.0333 µM (mTOR; 33.3 nM drug, +FKBP, read-out: residual kinase activity (mTOR)): 2%
residual kinase activity (mTOR) (mTOR; 33.3 nM drug, no FKBP): 2
remaining activity at 0.0333 µM (mTOR; 33.3 nM drug, no FKBP, read-out: residual kinase activity (mTOR)): 3%
residual kinase activity (mTOR) (mTOR; 100 nM drug, +FKBP): 2
remaining activity at 0.1 µM (mTOR; 100 nM drug, +FKBP, read-out: residual kinase activity (mTOR)): 3%
residual kinase activity (mTOR) (mTOR; […] drug, +FKBP): 57
remaining activity at […] (mTOR; […] drug, +FKBP, read-out: residual kinase activity (mTOR)): 55%
residual kinase activity (mTOR) (mTOR; […] drug, no FKBP): 54
remaining activity at […] (mTOR; […] drug, no FKBP, read-out: residual kinase activity (mTOR)): 56%
IC50 for mTOR kinase activity (mTOR; purified mTOR, whether FKBP12 was present): identical half-maximal inhibitory concentration (IC50) values as MLN0128
